The values below come from ChEMBL document CHEMBL3616449, “Synthesis, in vitro and in silico antimalarial activity of 7-chloroquinoline and 4H-chromene conjugates” (Bioorg Med Chem Lett, 2015).

Some results are limits rather than exact numbers.

For orientation: IC50 means the point on the concentration scale where inhibition reaches its midpoint. By CC50 is commonly meant the concentration that lowers cell viability or growth by half.

Series [1] deals with Plasmodium falciparum. The series can be described thus: Antimalarial activity against chloroquine-sensitive Plasmodium falciparum 3D7 incubated for 72 hrs by SYBR Green 1 assay. Type of series: functional, organism-based. The settings on record: 3D7, 72 h.
Series [2] concerns Plasmodium falciparum. The series can be described thus: Antimalarial activity against chloroquine-resistant Plasmodium falciparum K1 incubated for 72 hrs by SYBR Green 1 assay. Type of series: functional, organism-based. As to conditions: K1, 72 h.
Series [3] can be described thus: Cytotoxicity against african green monkey Vero cells after 72 hrs by MTT assay. As to conditions: chlorocebus sabaeus. Type of series: cell-based. A general note: Tetrazolium dyes change colour on reduction, which living cells bring about.
Series [4] can be described thus: Selectivity index, ratio of CC50 for african green monkey Vero cells to IC50 for chloroquine-sensitive Plasmodium falciparum 3D7. Type of series: functional.
The nature of series [5]: Selectivity index, ratio of CC50 for african green monkey Vero cells to IC50 for chloroquine-resistant Plasmodium falciparum K1. Type of series: functional.

Regarding `CNC1=C([N+](=O)[O-])C(c2ccc(N3CCN(c4ccnc5cc(Cl)ccc45)CC3)cc2)c2ccccc2O1` (stereo not drawn), the results for the IC50 in the series with Plasmodium falciparum [1] and with Plasmodium falciparum [2] were 1.11 µM and 3.38 µM, respectively. For the same molecule, the CC50 at 72 h in series [3] was more than 200 µM. Also, the “Ratio CC50/IC50” value in series [4] is given as more than 180.2; in series [5], more than 59.2.
For `CNC1=C([N+](=O)[O-])C(c2ccc(N3CCN(c4ccnc5cc(Cl)ccc45)CC3)cc2)c2cc(Cl)ccc2O1` (stereo not drawn) the same measures were 1.37 µM, 2.99 µM, 74.5 µM, 54.3 and 24.9.
In the case of `CNC1=C([N+](=O)[O-])C(c2ccc(N3CCN(c4ccnc5cc(Cl)ccc45)CC3)cc2)c2cc(Br)ccc2O1` (stereo not drawn), the IC50 amounted to 1.88 µM in the series with Plasmodium falciparum [1] and 1.75 µM in the series on Plasmodium falciparum [2]. Besides, the CC50 at 72 h in series [3] came to 88.6 µM. Moreover, the “Ratio CC50/IC50” value in series [4] came out at 47.1; in series [5], 50.6.
For `CNC1=C([N+](=O)[O-])C(c2ccc(N3CCN(c4ccnc5cc(Cl)ccc45)CC3)cc2)c2cc([N+](=O)[O-])ccc2O1` (stereo not drawn), in that order: 0.62 µM, 1.78 µM, 31.9 µM, 51.4 and 17.9.
Take `CNC1=C([N+](=O)[O-])C(c2ccc(N3CCN(c4ccnc5cc(Cl)ccc45)CC3)cc2)c2cc(OC)ccc2O1` (stereo not drawn): the IC50 in the series on Plasmodium falciparum [1] was 2.48 µM; in the series with Plasmodium falciparum [2], 4.25 µM. The molecule also yielded a half-maximal cytotoxic concentration (CC50) at 72 h in series [3] of 81.9 µM. Further, the “Ratio CC50/IC50” value worked out at 33 in series [4] and 19.3 in series [5].
For `CCOc1cccc2c1OC(NC)=C([N+](=O)[O-])C2c1ccc(N2CCN(c3ccnc4cc(Cl)ccc34)CC2)cc1` (stereo not drawn) the same measures were 2.93 µM, 2.95 µM, 40.4 µM, 13.7 and 13.6.
For `CNC1=C([N+](=O)[O-])C(c2ccc(N3CCN(c4ccnc5cc(Cl)ccc45)CC3)cc2)c2cccc(OC)c2O1` (stereo not drawn), in that order: 2.47 µM, 2.4 µM, 21.8 µM, 8.8 and 9.1.
As for `CNC1=C([N+](=O)[O-])C(c2ccc(N3CCN(c4ccnc5cc(Cl)ccc45)CC3)cc2)c2cc(Cl)cc(Cl)c2O1` (stereo not drawn), the values for the IC50 in the series with Plasmodium falciparum [1] and in the series with Plasmodium falciparum [2] were 3.92 µM and 1.45 µM, respectively. For the same molecule, the CC50 at 72 h in series [3] stood at 97.8 µM. Further, the “Ratio CC50/IC50” value in series [4] was 24.9; in series [5] it was 67.4.
In the case of `CNC1=C([N+](=O)[O-])C(c2ccc(N3CCN(c4ccnc5cc(Cl)ccc45)CC3)cc2)c2cc(Br)cc(Br)c2O1` (stereo not drawn), the IC50 in the series on Plasmodium falciparum [1] was more than 5 µM; in the series with Plasmodium falciparum [2], 2.93 µM. The same molecule registered a CC50 at 72 h in series [3] of more than 200 µM. Moreover, in series [5], the “Ratio CC50/IC50” value is listed as more than 68.2.
Consider `CNC1=C([N+](=O)[O-])C(c2ccc(N3CCN(c4ccnc5cc(Cl)ccc45)CC3)cc2)c2c(C=O)c(C)cc(Cl)c2O1` (stereo not drawn), for which the figures for the IC50 in the series on Plasmodium falciparum [1] and in the series with Plasmodium falciparum [2] were 2.34 µM and 0.87 µM, respectively. Also, in series [3], the midpoint of cytotoxicity, the CC50 at 72 h, lay at 84 µM. Further, the “Ratio CC50/IC50” value in series [4] came out at 35.8; in series [5], 96.5.
Consider `O=[N+]([O-])C1=C(NCc2ccccc2)Oc2ccccc2C1c1ccc(N2CCN(c3ccnc4cc(Cl)ccc34)CC2)cc1` (stereo not drawn), for which the half-maximal inhibitory concentration (IC50) in the series with Plasmodium falciparum [1] and in the series on Plasmodium falciparum [2] was more than 5 µM in each case. Further, the CC50 at 72 h in series [3] is 66.5 µM. Moreover, the “Ratio CC50/IC50” value in series [4] and in series [5] was less than 13.3 in each case.
For the molecule `O=[N+]([O-])C1=C(NCCc2ccccc2)Oc2ccccc2C1c1ccc(N2CCN(c3ccnc4cc(Cl)ccc34)CC2)cc1` (stereo not drawn), the IC50 stood at 3.31 µM in the series on Plasmodium falciparum [1] and 1.74 µM with Plasmodium falciparum [2]. Further, the midpoint of cytotoxicity in series [3], the CC50 at 72 h, lay at 131 µM. In addition, the “Ratio CC50/IC50” value in series [4] was found to be 39.6; in series [5], 75.5.
For `CCCCNC1=C([N+](=O)[O-])C(c2ccc(N3CCN(c4ccnc5cc(Cl)ccc45)CC3)cc2)c2ccccc2O1` (stereo not drawn), in that order: 3.09 µM, 3.57 µM, 107 µM, 34.6 and 29.9.
As for `CNC1=C([N+](=O)[O-])C(c2ccc(N3CCCN(c4ccnc5cc(Cl)ccc45)CC3)cc2)c2ccccc2O1` (stereo not drawn), the 50% inhibitory concentration (IC50) with Plasmodium falciparum [1] and in the series with Plasmodium falciparum [2] was more than 5 µM each time. In addition, the CC50 at 72 h in series [3] stood at 91.4 µM. Moreover, the “Ratio CC50/IC50” value in series [4] is less than 18.3.
Regarding `CNC1=C([N+](=O)[O-])C(c2ccc(N3CCCN(c4ccnc5cc(Cl)ccc45)CC3)cc2)c2cc(Cl)ccc2O1` (stereo not drawn), the IC50 in the series with Plasmodium falciparum [1] stood at 0.29 µM; in the series with Plasmodium falciparum [2] it was 0.496 µM. In series [3], this molecule had a CC50 at 72 h of 77 µM. Besides, the “Ratio CC50/IC50” value in series [4] amounted to 265.4; in series [5], 155.2.
For `CNC1=C([N+](=O)[O-])C(c2ccc(N3CCCN(c4ccnc5cc(Cl)ccc45)CC3)cc2)c2cc(Br)ccc2O1` (stereo not drawn), in that order: 2.24 µM, 1.27 µM, more than 200 µM, more than 89.3 and more than 157.5.
Take `Clc1ccc2c(N3CCN(c4ccccc4)CC3)ccnc2c1`: the results for the IC50 in the series on Plasmodium falciparum [1] and in the series with Plasmodium falciparum [2] were 2.69 µM and 2.49 µM, respectively. This molecule returned a CC50 at 72 h in series [3] of 179 µM. Besides, the “Ratio CC50/IC50” value in series [4] turned out to be 66.3; in series [5], 71.7.
For `Clc1ccc2c(N3CCCN(c4ccccc4)CC3)ccnc2c1`, the IC50 in the series with Plasmodium falciparum [1] turned out to be 3.98 µM; in the series on Plasmodium falciparum [2] it was 4.47 µM. The CC50 at 72 h in series [3] was 148 µM. Further, the “Ratio CC50/IC50” value stood at 37.1 in series [4] and 33.1 in series [5].
